Results as given in patent publication US20250059174A1, “Pharmaceutical Compounds and Compositions as C-Kit Kinase Inhibitors” (Enanta Pharmaceuticals, Inc., priority 2023, published 2025).

Key:
M-07e cells = assay: M-07e cellular assay (SCF-mediated cell proliferation); type: cell-based; details: Homo sapiens, 72 hours, CellTiter Glo
Method in brief: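 Readout came from CellTiter Glo after 72 h of compound treatment in SCF (EC90)-stimulated, pre-starved M-07e cells at 37 °C.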

[1] = target: Recombinant human c-KIT kinase (Homo sapiens (Human), UniProt P10721); assay: c-KIT kinase chemiluminescence assay (ADP-Glo); type: biochemical; details: ATP 50 μM
Method in brief: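 Recombinant human c-KIT preincubated 30 min at RT in 40 mM Tris pH 7.5, 20 mM MgCl2, 0.1 mg/mL BSA, 50 μM DTT, then reacted 2 h at RT with ATP and polyEY substrate. ADP-Glo luminescence readout; activity normalized to high/low controls, IC50 and Hill coefficient from inhibitor-versus-normalized-response fit.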

Recombinant human c-KIT kinase, sequence (P10721 26-976): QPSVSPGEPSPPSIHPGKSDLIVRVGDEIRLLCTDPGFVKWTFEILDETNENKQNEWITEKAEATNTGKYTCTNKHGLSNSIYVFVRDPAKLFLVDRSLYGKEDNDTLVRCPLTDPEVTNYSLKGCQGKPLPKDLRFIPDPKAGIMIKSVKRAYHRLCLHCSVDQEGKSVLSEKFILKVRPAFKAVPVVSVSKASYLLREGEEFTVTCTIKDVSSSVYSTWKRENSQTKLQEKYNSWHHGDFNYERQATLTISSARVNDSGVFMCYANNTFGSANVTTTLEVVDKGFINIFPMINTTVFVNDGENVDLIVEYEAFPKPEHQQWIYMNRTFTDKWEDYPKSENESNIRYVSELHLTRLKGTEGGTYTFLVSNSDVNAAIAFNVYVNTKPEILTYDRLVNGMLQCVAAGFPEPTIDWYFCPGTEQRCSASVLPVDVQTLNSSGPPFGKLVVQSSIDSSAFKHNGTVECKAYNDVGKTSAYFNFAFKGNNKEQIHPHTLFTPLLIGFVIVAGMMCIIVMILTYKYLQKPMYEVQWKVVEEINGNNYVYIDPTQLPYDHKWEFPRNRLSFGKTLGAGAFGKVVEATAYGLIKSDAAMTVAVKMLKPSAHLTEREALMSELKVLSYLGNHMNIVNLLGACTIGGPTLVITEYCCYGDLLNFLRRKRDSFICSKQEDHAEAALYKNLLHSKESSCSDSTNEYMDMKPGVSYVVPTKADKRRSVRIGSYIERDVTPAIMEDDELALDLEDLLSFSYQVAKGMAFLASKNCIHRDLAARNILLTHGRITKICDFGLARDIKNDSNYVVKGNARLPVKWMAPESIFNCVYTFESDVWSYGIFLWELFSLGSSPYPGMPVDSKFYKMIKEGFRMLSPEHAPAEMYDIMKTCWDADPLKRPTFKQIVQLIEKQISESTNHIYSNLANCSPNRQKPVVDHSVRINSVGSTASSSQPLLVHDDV

Structure (SMILES) | IC50 [1] [µM] | EC50 (M-07e cells) [µM]
Cc1ccc(-c2noc([C@H]3C[C@@H]3F)n2)cc1NC(=O)c1cnn2ccc(-c3cn(CC(C)(C)O)nn3)cc12 [Example 122] | < 0.1 | < 0.1
Cc1ncc(C(=O)Nc2cc(-c3noc([C@H]4C[C@@H]4F)n3)ccc2C)s1 [Example 34] | > 1 | > 1
Cc1ccc(-c2noc([C@H]3C[C@@H](OC(F)(F)F)C3)n2)cc1NC(=O)c1cnn2ccc(N3CC4(CN(CC(F)F)C4)C3)cc12 [Example 259] | < 0.1 | < 0.1
Cc1ccc(-c2noc([C@H]3C[C@@H]3F)n2)cc1NC(=O)c1cnn2ccc(-c3c(C)nn(CC(C)(C)O)c3C)cc12 [Example 152] | < 0.1 | < 0.1
Cc1ccc(-c2noc([C@H]3C[C@@H]3F)n2)cc1NC(=O)c1cnn2cc(-c3cn(CC(F)(F)F)nn3)ccc12 [Example 112] | < 0.1 | < 0.1
Cc1ccc(-c2noc([C@H]3C[C@@H]3F)n2)cc1NC(=O)c1n[nH]c2ncccc12 [Example 40] | > 1 | > 1
Cc1ccc(-c2noc([C@H]3C[C@@H]3F)n2)cc1NC(=O)c1cnn2ccc(N3CCN(C(=O)OC(C)(C)C)C[C@@H]3C)cc12 [Example 191] | < 0.1 | < 0.1
Cc1ccc(-c2ncc(OC(F)F)cn2)cc1NC(=O)c1cnn2ccc(-c3c(C)nc(N)nc3C)cc12 [Example 366] | > 1 | 0.1 to 1
Cc1ccc(-c2noc([C@H]3C[C@@H]3F)n2)cc1NC(=O)c1cnn2ccc(-c3cn(CCO)nn3)cc12 [Example 110] | 0.1 to 1 | < 0.1
CC(=O)N1CCN(c2ccn3ncc(C(=O)Nc4cc(-c5noc([C@H]6C[C@@H]6F)n5)ccc4C)c3c2)C[C@H]1C [Example 234] | < 0.1 | < 0.1
Cc1ccc(-c2noc([C@H]3C[C@@H]3F)n2)cc1NC(=O)c1cnn2ccc(N3CCO[C@H](C)C3)cc12 [Example 214] | < 0.1 | < 0.1
Cc1ccc(-c2noc([C@H]3C[C@@H]3F)n2)cc1NC(=O)c1cnn2cc(Cl)ccc12 [Example 57] | < 0.1 | 0.1 to 1
Cc1ccc(-c2noc([C@H]3C[C@@H]3F)n2)cc1NC(=O)c1cnc(-c2ccc3[nH]c(=O)oc3c2)o1 [Example 300] | 0.1 to 1 | 0.1 to 1

Further lines, with some results ahead:

IC50 [1] [µM] | Structure (SMILES) | EC50 (M-07e cells) [µM]
< 0.1 | Cc1ccc(-c2noc([C@H]3C[C@@H]3F)n2)cc1NC(=O)c1cnc(-c2ccc3c(c2)NCCO3)o1 [Example 308-36] | < 0.1
< 0.1 | Cc1ccc(-c2noc([C@H]3C[C@@H]3F)n2)cc1NC(=O)c1cnc(-c2ccc3[nH]c4c(c3c2)CCNC4)o1 [Example 308-57] | 0.1 to 1
< 0.1 | Cc1ccc(-c2noc([C@H]3C[C@@H]3F)n2)cc1NC(=O)c1cnc(-c2cnc3[nH]ccc3c2)o1 [Example 308-17] | < 0.1
> 1 | Cc1cc(F)c(-c2noc([C@H]3C[C@@H]3F)n2)cc1NC(=O)c1cnc(-c2ccc3c(cnn3C(=O)OC(C)(C)C)c2)o1 [Example 308-10] | 0.1 to 1
< 0.1 | Cc1ncc(-c2noc([C@H]3C[C@@H](OC(F)(F)F)C3)n2)cc1NC(=O)c1cnn2cc(-c3cn(CCO)nn3)ccc12 [Example 132-9] | < 0.1
> 1 | Cc1ccc(-c2noc(C3CN(C(=O)C4CC(F)(F)C4)C3)n2)cc1NC(=O)c1cnn2ccc(N3CC4(COC4)C3)cc12 [Example 281-49] | > 1
> 1 | Cc1ncc(-c2noc(C3CN(C(=O)C4CC4)C3)n2)cc1NC(=O)c1cnn2ccc(N3CC4(COC4)C3)cc12 [Example 281-87] | > 1
< 0.1 | Cc1ccc(-c2noc([C@H]3C[C@@H]3F)n2)c(F)c1NC(=O)c1cnn2ccc(N3CC4(COC4)C3)cc12 [Example 281-65] | < 0.1
0.1 to 1 | Cc1sc(-c2noc(C3CN(C(=O)C4(F)CC4)C3)n2)cc1NC(=O)c1cnn2ccc(N3CC4(COC4)C3)cc12 [Example 281-128] | 0.1 to 1
